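Cells were grown in 96-well plates and exposed to each compound for 48 hours at five concentrations; endpoints were interpolated linearly between bracketing concentrations, or set to the highest concentration if not reached. The concentration for 50% growth inhibition is given as GI50. The concentration for full growth arrest is given as TGI.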
What follows are molecules tested on MDA-MB-468 breast (assay: DTP human tumour cell line panel, 48 h).
Molecule Cc1cc2cc3cc(C)c(N(C)C)cc3[n+](C)c2cc1N(C)C has a GI50 of 0.95 µM and a TGI of 13.5 µM.
With C/C=C/C/C=C/CCC(=O)[C@H]1O[C@H]1C(N)=O the GI50 was 11.7 µM and the TGI was 25.9 µM.
CC(=O)N1N=C(c2ccc(Nc3nc(Nc4ccc(Cl)cc4)nc(Nc4ccc(Cl)cc4)n3)cc2)CC1c1ccc([N+](=O)[O-])cc1 (stereo not given) gave a GI50 of 3.08 µM and a TGI greater than 100 µM.
For O=c1c2c3c(sc2n2c(-c4cc(-c5ccccc5)no4)nnc2n1Cc1ccccc1)CCCC3, the GI50 was 14.6 µM and the TGI was 43.8 µM.
Work on CN(Cc1ccc(Cl)cc1)c1ccc(CO)c(Cl)c1 yielded a GI50 of 0.0657 µM and a TGI of 0.219 µM.
Work on N#C/C(=N\Nc1ccc(Cl)cc1)C(=O)Nc1cc(-c2ccccc2)nn1-c1ccccc1 yielded a GI50 of 1.84 µM and a TGI of 5.93 µM.
With COc1cc(C(=O)N2N=C(c3ccc(S(C)(=O)=O)cc3)CC2c2ccco2)cc(OC)c1OC (stereo not given) the GI50 was 2.49 µM and the TGI was greater than 26 µM.
With COc1cccc(C2C3=C(COC3=O)N(CCO)c3cc(OC)ccc32)c1 (stereo not given) the GI50 was 0.0365 µM and the TGI was 1.26 µM.
O=c1c2ccccc2c(Br)c(Br)c2ccccc12 showed a GI50 of 2.74 µM and a TGI of 9.55 µM.
In the case of O=C(CSc1nc2sc3c(c2c(=O)n1-c1ccc(Cl)cc1)CCCC3)NNC(=O)Nc1ccc(Cl)c(C(F)(F)F)c1, the GI50 is reported as 1.55 µM and the TGI is reported as 3.66 µM.
Work on COc1ccc(C2CC(c3cccc(Nc4ccncc4)c3)=NN2c2ccc(Cl)cc2)cc1 (stereo not given) yielded a GI50 of 1.45 µM and a TGI of 2.95 µM.
With Cc1cc(NCCCNc2ccnc3cc(Cl)ccc23)nc(N2CCN(C)CC2)n1 the GI50 was 1.76 µM and the TGI was 5.97 µM.
Work on CCOc1ccccc1NC(=O)c1cc2ccccc2cc1O yielded a GI50 of 2.38 µM and a TGI of 7.18 µM.
N/C(=C\C(=O)n1nc(-c2ccccc2)cc1N)c1ccccc1 was tested, and the GI50 was 5.54 µM and the TGI was 56.3 µM.
With CC(=O)Nc1ccc(/C=C/C(=O)c2ccccc2)cc1 the GI50 was 11.7 µM and the TGI was 26 µM.
Molecule Clc1ccc(/C=C/c2cc(N3CCOCC3)c3cc(Cl)c(Cl)cc3n2)cc1 has a GI50 greater than 100 µM and a TGI greater than 100 µM.
With Cn1cc(C2=C(c3cn(CCO)c4ccccc34)C(=O)NC2=O)c2ccccc21 the GI50 was 2.52 µM and the TGI was 10.8 µM.
CCN1/C(=C/C=C/c2n(-c3ccccc3)c3ccc(-c4nc5ccccc5s4)cc3[n+]2CC)N(c2ccccc2)c2ccc(-c3nc4ccccc4s3)cc21 showed a GI50 of 0.283 µM and a TGI greater than 50 µM.
In the case of COc1cc2cc(C(=O)CCC(=O)O)sc2cc1OC, the GI50 is reported as greater than 100 µM and the TGI is reported as greater than 100 µM.
CN(c1cc2ncc(=O)[nH]c2cc1NC(N)=NCc1ccc(Cl)cc1)C1CCCCC1 was tested, and the GI50 was 1.23 µM and the TGI was 4.42 µM.
Clc1cc2c(cc1Cl)Oc1cc(Cl)c(Cl)cc1O2 showed a GI50 greater than 0.625 µM and a TGI greater than 0.625 µM.
With CCCCCc1nc2c(c3c1CCCC3)CCCC2 the GI50 was 4.13 µM and the TGI was 18.1 µM.
In the case of CC(C)Nc1ccc(Nc2ccccc2)cc1, the GI50 is reported as 4.45 µM and the TGI is reported as 19.7 µM.
For Cc1ccc2c(c1)c1nc3cc(C)c(C)cc3nc1n2CCN(C)C, the GI50 was 1.39 µM and the TGI was 3.54 µM.
Work on Nc1ccccc1-c1ccc([N+](=O)[O-])cc1 yielded a GI50 of 13.4 µM and a TGI greater than 100 µM.
Work on CC(C)[C@H]1CC[C@H]2[C@@H](CC[C@H]3[C@](C)(CN)CCC[C@]23C)C1 yielded a GI50 of 8.83 µM and a TGI of 23.5 µM.
In the case of CCCCCCc1cc2cc(-c3nc4ccccc4[nH]3)c(=Nc3ccccc3C)oc2cc1O, the GI50 is reported as 1.82 µM and the TGI is reported as 3.74 µM.
N#Cc1ncc(-c2ccc(C(F)(F)F)cc2)c(NCc2cc(C(F)(F)F)cc(C(F)(F)F)c2)n1 was tested, and the GI50 was 2.56 µM and the TGI was 7.38 µM.
Cn1cc(C2=C(c3cccc(N)c3)C(=O)NC2=O)c2ccccc21 gave a GI50 greater than 18.2 µM and a TGI greater than 25 µM.
Cn1ccnc1C(=O)/C=C/c1ccc(C(=O)Nc2ccc(S(F)(F)(F)(F)F)cc2)cc1 gave a GI50 of 0.423 µM and a TGI of 13.8 µM.
Oc1ccc(CN2CCC(N3CCOCC3)CC2)c2cccnc12 gave a GI50 of 22.6 µM and a TGI of 60.6 µM.
In the case of CC(C)c1c(C(=O)Nc2ccccc2)c(-c2ccccc2)c(-c2ccc(F)cc2)n1CC[C@@H]1CC=CC(=O)O1, the GI50 is reported as 1.83 µM and the TGI is reported as 3.82 µM.
Work on O=c1ccc(N=Nc2ccc([N+](=O)[O-])cc2)ccc1O yielded a GI50 of 3.8 µM and a TGI of 81.2 µM.
N#Cc1cccc(OCc2nc(N)nc(N)c2-c2ccc(Cl)c(Cl)c2)c1 gave a GI50 of 3.08 µM and a TGI greater than 100 µM.
CCOc1ccc(-c2cnnn2-c2nonc2-n2cccc2)cc1 gave a GI50 of 0.12 µM and a TGI of 0.495 µM.
O=S(=O)(Cc1ccc(Cl)cc1Cl)c1ccc(Cl)cc1 showed a GI50 of 0.265 µM and a TGI of 2.19 µM.
With CC/C(=C(/c1ccc(OCCN(C)C)cc1)c1ccc(OC(=O)CCC(=O)c2c(C)[nH]c(/C=C3\N=C(c4ccc[nH]4)C=C3OC)c2C)cc1)c1ccccc1 the GI50 was 2.9 µM and the TGI was 14 µM.
O=C(Nc1ccc(F)cc1)Nc1ccccc1CNc1nc(Nc2ccc(OCCN3CCCC3)cc2)ncc1Cl gave a GI50 of 1.12 µM and a TGI of 2.89 µM.
In the case of Cc1ccc(NC(=O)Cc2ccc(/C=C/C(=O)c3ncc[nH]3)cc2)cc1, the GI50 is reported as 3.3 µM and the TGI is reported as 23.4 µM.
With c1ccc(C2CC(c3cccc(Nc4ccncc4)c3)=NN2c2ccccc2)cc1 (stereo not given) the GI50 was 1.49 µM and the TGI was 3.02 µM.
CCCc1cc(O)c2c3c(c(=O)oc2c1)CN(C)CC3 was tested, and the GI50 was 24.2 µM and the TGI was 85.2 µM.
For CCN(CC)c1ccc(/C=C2/C[N+](C)(C)C/C(=C/c3ccc(N(CC)CC)cc3)C2=O)cc1, the GI50 was 1.32 µM and the TGI was 3.57 µM.
Work on O=C1C2C(C(=O)[N]1[Hg][c]1cccs1)C1(Cl)C(Cl)=C(Cl)C2(Cl)C1(Cl)Cl (stereo not given) yielded a GI50 of 1.25 µM and a TGI of 2.7 µM.
Work on COc1cc(-c2nc3sccn3c2-c2ccnc(NCCNS(=O)(=O)c3ccc(Cl)cc3)n2)ccc1F yielded a GI50 of 2.48 µM and a TGI greater than 100 µM.
For Oc1ccccc1/C=N/Nc1nc(N/N=C/c2ccccc2O)nc(N2CCOCC2)n1, the GI50 was 4.11 µM and the TGI was 35.9 µM.

— PubChem BioAssay (NCI)
